Read-outs that look alike come from different tables or passages of the source.
Tests used:
[1] = cited from earlier work
[2] = for precipitation in liposomal dispersion after neutralization: 100 mg phospholipid/ml liposomes ca 30 nm in isotonic glycerol
Description: Visual assessment may be supported by comparing the transmission optical density (OD) measurements before and after the compound is added when the system is at equilibrium. […] The figures should be at least 80% of the initial transmission value of the blank dispersion which is used as a control. […] When the liposome dispersions are not sufficiently transparent the loading process can nevertheless be followed by e.g. using microscopy techniques to detect unassociated drug particles.
A first aqueous suspension comprising SUVs is prepared in a micro-fiuidizer. The dispersion contains 100 mg phospholipid/ml in isotonic glycerol solution.

[3] = control experiment without phospholipid: isotonic glycerol solution neutralized to pH 7.0; format: physicochemical
Description: In a control experiment 25 μl of the 100 mg phenytoin/ml solution in 1 M NaOH is added to 1.0 ml of isotonic glycerol solution to make up 2500 μg phenytoin/ml.

[4] = cited from earlier work; remark: listed apart in the source
[5] = cited from earlier work; remark: listed apart in the source
[6] = 5 mg drug/ml, neutralized to pH 7.0 with NaOH
[7] = 5 mg drug/ml in isotonic glycerol solution, neutralized to pH 7.0 with NaOH
[8] = 2.5 mg drug/ml in isotonic glycerol solution, neutralized to pH 7.0

SMILES: O=C1NC(=O)C(c2ccccc2)(c2ccccc2)N1 [Phenytoin sodium]
- solubility at pH 10-pH13 ([1]; pH 10-pH13, according to Martindale): freely soluble

SMILES: CN1C(=O)CN=C(c2ccccc2)c2cc(Cl)ccc21 [diazepam]
- precipitation in liposomal dispersion after neutralization [2, 6]: remain dear without diazepam precipitates
- precipitation in control without lipid after neutralization [3, 7]: precipitates out

SMILES: OCCN(CCO)c1nc(N2CCCCC2)c2nc(N(CCO)CCO)nc(N3CCCCC3)c2n1 [dipyridamole]
- precipitation in liposomal dispersion after neutralization ([2]; 2.5 mg drug/ml, neutralized to pH 7.0): No precipitated dipyridamole is noticed
- precipitation in control without lipid after neutralization [3, 8]: precipitates
- pKa [4]: 6.4
- solubility at pH 1.2 [1]: 1753 μg/ml
- solubility in water at pH 7 [1]: 5 μg/ml

SMILES: CC(=O)N1CCN(c2ccc(OCC3COC(Cn4ccnc4)(c4ccc(Cl)cc4Cl)O3)cc2)CC1 (centres unmarked) [ketoconazole]
- precipitation in liposomal dispersion after neutralization [2, 6]: no precipitated ketoconazole can be seen
- precipitation in control without lipid after neutralization [3, 7]: precipitates
- solubility at pH 1.2 [1]: 2729 μg/ml
- solubility in water at pH 7 [1]: 2 μg/ml

SMILES: O=C1NC(=O)C(c2ccccc2)(c2ccccc2)N1 [phenytoin]
- amount solubilized in the liposomes ([2]; pH 7): 2500 µg
- precipitation in control without lipid after neutralization [3, 8]: precipitates
- Log P oil/water [5]: 2.3
- solubility in water at pH 7 [1]: 3.7 μg/ml
- solubility in water at pH 7 ([1]; listed as Phenytoin): 37 μg/ml

Source: patent US20110244028A1, “METHOD OF SOLUBILIZING BIOLOGICALLY ACTIVE COMPOUNDS” (priority 2008, published 2011)
